In BindingDB's records for doi:10.1038/sj.bjp.0705856 (Schering-Plough Research Institute, 2004) one finds Ki data, which are given here for 1 compound.

For the test, the target named is T1, Sphingosine 1-phosphate receptor 4 (Homo sapiens, UniProt O95977).
T1 sequence (O95977 whole entry): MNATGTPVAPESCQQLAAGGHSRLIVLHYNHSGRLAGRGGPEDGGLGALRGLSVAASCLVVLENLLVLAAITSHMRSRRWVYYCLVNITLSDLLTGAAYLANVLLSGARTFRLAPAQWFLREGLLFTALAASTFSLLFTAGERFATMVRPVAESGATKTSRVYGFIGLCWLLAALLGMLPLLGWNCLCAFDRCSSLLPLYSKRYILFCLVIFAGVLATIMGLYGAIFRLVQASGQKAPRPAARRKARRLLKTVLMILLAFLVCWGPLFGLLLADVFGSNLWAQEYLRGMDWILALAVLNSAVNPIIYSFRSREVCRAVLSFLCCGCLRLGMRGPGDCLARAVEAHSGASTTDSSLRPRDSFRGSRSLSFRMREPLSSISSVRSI

Structures are written as SMILES. Several values for one entry are separate records, joined by “and”; a condition that tells them apart may be missing. Equal entries are not always repeated.

For orientation: Ki means the equilibrium dissociation constant of an inhibitor or competing ligand from its target. Read a high Ki as lower affinity. With `CCCCCCCCCCCCC/C=C\C(O)C(N)COP(=O)(O)O` (stereo unspecified) [{[(4Z)-2-amino-3-hydroxyoctadec-4-en-1-yl]oxy}phosphonic acid], the Ki was 0.021 µM and 0.064 µM and 0.027 µM and 0.032 µM and 0.028 µM and 0.033 µM.
